{"source": "patent US20150080475A1", "about": "“Memantine Protects Inflammation-Related Degeneration of Dopamine Neurons Through Inhibition of Over-Activated Microglia and Release of Neurotrophic Factors From Astroglia” (priority 2009, published 2015)", "test_system": "DA neurons", "test": "MPP+-induced reduction in DA uptake in neuron-enriched cultures", "assay_type": "cell-based", "conditions": "MPP+ 0.25 μM, seven days, neuron-enriched cultures", "procedure": "Mesencephalic neuron-glia cultures were seeded (5×10^5/well) in 24 well plates precoated with poly D-lysine. Thirty-six hours postseeding, 5-10 μM cytosine β-D-arabinofuranoside was added to the culture. After 2 days, the cytosine β-D-arabinofuranoside was removed and replaced with fresh media. Neuron-enriched cultures are 98% pure, as indicated by ICC staining with OX-42 and GFAP antibodies. Neuron-enriched cultures were treated 7 days post-seeding. For microglia add-back cultures, the microglia were plated on top of the neuron-enriched culture at 6 days postseeding, resulting in the addition of either 10% (500 μL of 1×10^5) or 20% (500 μL of 2×10^5) microglia. […]\nCells were incubated in Krebs-Ringer buffer (16 mM NaH2PO4, 1.2 mM MgSO4, 1.3 mM EDTA, […], for 21 min at 37° C. with 1 μM [^3H] DA. Nonspecific uptake was blocked for DA with 10 μM mazindole. After incubation, cells were washed three times with 1 mL/well of ice-cold Krebs-Ringer buffer. Cells were then lysed with 0.5 mL/well of 1 N NaOH and mixed with 15 mL of scintillation fluid. Radioactivity was measured on a scintillation counter, where specific [^3H] DA uptake was calculated by subtracting the mazindole.\nTo determine whether the neuroprotective effect of MMT was dependent on the presence of glial cells, the effects of MMT on the neuron-enriched cultures were determined. […]"}
{"smiles": "C[n+]1ccc(-c2ccccc2)cc1", "note": "[MPP^+]", "values": [{"measurement": "reduction of DA uptake compared with control cultures", "value": 31, "unit": "%"}]}
